Source: US10759796B2, “CXCR4 inhibitors and uses thereof” (X4 Pharmaceuticals, Inc., priority 2016, dated 2020)

How the values were obtained:
[1] = biological target: CXCR-4 transfected U87 cell line (U87.CXCR4) (Homo sapiens (Human), UniProt P61073); test: Intracellular CXCL-12-induced calcium mobilization assay (FLIPR); assay type: cell-based; details: U87.CXCR4 cells, CXCL-12 25-50 ng/mL; read-out: IC50 CXCL-12 Ca2+ flux U87.CXCR4+
Summary of the method: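 U87.CXCR4 cells were seeded at 20,000 per well, cultured 12 hours, then loaded with 4 μM Fluo-2 AM for 45 min at 37° C. in HBSS with 20 mM HEPES and 0.2% BSA, pH 7.4. Calcium flux triggered by CXCL-12 (25-50 ng/mL) was tracked over time by FLIPR fluorescence at 37° C.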

[2] = Mouse brain uptake assay (pharmacokinetics and brain penetration after IV administration), 0-1 h, 3 time points; assay type: in vivo, Male CD1 Mice; details: male; for Kp uu: CD1, brain and plasma, read-out: Kp, uu (unbound brain/unbound plasma drug concentration ratio); for Kp uu / clearance / half-life: Mouse, 0-1 h; for Kp uu / clearance / half-life / AUC(0-t): 3 mg/kg IV; for Kp: CD1, mouse, brain and plasma, iv, 3 mg/kg, read-out: Kp (brain/plasma drug concentration ratio); for clearance / half-life: CD1, plasma, 3 time points; for half-life: read-out: t½ (converted); for AUC(0-t): CD1, time zero to 1 hr
Procedure: Example 29: Pharmacokinetics and Brain Penetration Experiment to Determine Brain and Plasma Concentrations of Compounds After IV Administration to Male CD1 Mice or Male SD Rat
(§1) The study design (9 animals) consisted of administrating the drug (IV: 3 mg/kg (5 mL/kg) via tail vein injection) and collecting samples at terminal bleeding for plasma and brain at 0.083, 0.5 and 1 h. The blood collection was performed as follows: the animal was restrained manually and approximately 150 μL blood/time point was collected into a dipotassium EDTA tube via retro orbital puncture under anesthesia with isoflurane. The blood sample was put on ice and centrifuged to obtain a plasma sample (2000 g, 5 min under 4° C.) within 15 minutes. The brain collection was performed as follows: a mid-line incision was made in the animal's scalp and the skin was retracted. Using small bone cutters and rongeurs, the skull overlying the brain was removed. The brain was removed using a spatula and the brain rinsed with cold saline. The brain was placed in screw-top tubes, and the tubes were stored at −70° C. until analysis. The IV dosing solution was prepared in 50 mM citrate buffer (pH 4.0) at 0.6 mg/mL.
Plasma Sample Preparation:
(§2) An aliquot of 30 μL sample was added to 150 μL MeCN containing 50 ng/mL IS (Dexamethasone). The mixture was vortexed for 5 min and centrifuged at 14,000 rpm for 5 min. An aliquot of 5 μL supernatant was injected for LC-MS/MS analysis.
Brain Sample Preparation:
(§3) An aliquot of 30 μL brain homogenate (brain:PBS=1:3, w/v) sample was added to 150 μL IS in ACN (Dexamethasone, 50 ng/mL). The mixture was vortexed for 5 min and centrifuged at 14,000 rpm for 5 min. An aliquot of 5 μL supernatant was injected for LC-MS/MS analysis.
(§4) The sample analysis was performed on LCMS/MS-003 (API4000, triple quadruple) under the following conditions: positive ion, ESI, MRM detection using dexamethasone as internal standard. HPLC conditions: mobile phase A: H2O (0.025% formic acid (FA) with 1 mM NH4OAc); mobile phase B: MeOH (0.025% FA with 1 mM NH4OAc) on Waters X-Bridge C18 (2.1×50 mm, 2.5 μm) column at 60° C.

[3] = Mouse brain uptake assay, 0-24 h, 4 time points; assay type: in vivo; details: male, 3 mg/kg IV, 4 time points; for Kp / Kp uu: CD1, brain and plasma; for Kp / clearance / half-life / Kp uu: Mouse; for clearance / half-life: CD1, plasma; for half-life: read-out: t½ (converted)
Procedure: as §1, §2, §3, §4
A similar experiment was performed with 4 time points taken from 0-24 h.

[4] = Mouse brain, read-out: AUClast (b)
[5] = Mouse plasma, read-out: AUClast (p)
[6] = CD1, Mouse brain, read-out: AUClast (b)
[7] = CD1, Mouse plasma, read-out: AUClast (p)

Chain of CXCR-4 transfected U87 cell line (U87.CXCR4) (P61073 whole entry): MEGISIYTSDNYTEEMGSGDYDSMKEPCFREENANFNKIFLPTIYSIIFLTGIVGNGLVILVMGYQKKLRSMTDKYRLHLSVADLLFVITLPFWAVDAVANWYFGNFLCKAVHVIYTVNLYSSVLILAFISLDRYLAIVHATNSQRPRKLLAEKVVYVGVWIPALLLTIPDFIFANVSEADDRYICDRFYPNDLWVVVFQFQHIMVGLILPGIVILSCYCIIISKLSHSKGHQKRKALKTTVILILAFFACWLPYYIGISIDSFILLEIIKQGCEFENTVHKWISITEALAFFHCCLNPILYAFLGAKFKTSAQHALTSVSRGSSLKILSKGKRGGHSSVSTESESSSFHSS

IC50 [1] [nM] | Kp uu [2] | Kp [2] | clearance [2] [mL/min/kg] | half-life [2] [min] | AUC(0-t) [2, 4] [ng·h/mL] | AUC(0-t) [2, 5] [ng·h/mL] | AUC(0-t) [3, 6] [ng·h/mL] | AUC(0-t) [3, 7] [ng·h/mL] | Kp [3] | clearance [3] [mL/min/kg] | half-life [3] [min] | Kp uu [3] | Compound
100 to 1000 |  |  |  |  |  |  |  |  |  |  |  |  | CN1CCN(c2cccc3nc([C@@H]4CCC[C@H](c5ncccc5Cl)N4)cn23)CC1 (single isomer, unassigned) [Compound I-189]
0.01 to 100 |  | 0.61 | 48.3 | 216 | 326 | 531 | 3170 | 1040 | 3.05 | 48.3 | 216 |  | Cc1cccnc1[C@@H]1CCC[C@H](c2cn3c(-c4cccnc4)cccc3n2)N1C [Compound I-6]
0.01 to 100 | 0.43 | 11.8 | 245 | 20.6 | 2060 | 175 |  |  |  |  |  |  | Cc1cccnc1[C@@H]1CCC[C@H](c2nc3cccc(N4CCN(C)CC4)n3c2Cl)N1C [Compound I-18]
0.01 to 100 | 0.32 | 8.84 | 223 | 21.8 | 1690 | 191 |  |  |  |  |  |  | CCN1CCN(c2cccc3nc([C@H]4CCC[C@@H](c5ncccc5C)N4C)c(Br)n23)CC1 [Compound I-19]
100 to 1000 | 0.3 | 6.29 | 173 | 22.4 | 1520 | 241 |  |  |  |  |  |  | Cc1cccnc1[C@@H]1CCC[C@H](c2nc3cccc(N4CCN(C(C)C)CC4)n3c2Br)N1C [Compound I-20]
0.01 to 100 | 0.08 | 0.76 | 117 | 43.2 | 205 | 267 |  |  |  |  |  |  | Cc1cccnc1[C@@H]1CCC[C@H](c2nc3cccc(N4CCC(N(C)C)CC4)n3c2Cl)N1C [Compound I-114]
100 to 1000 | 0.21 | 1.86 | 7.22 | 361 | 1640 | 884 | 34800 | 6590 | 5.29 | 7.22 | 361 | 0.6 | Cc1cccnc1[C@@H]1CCC[C@H](c2nc3cccc(N4CCN(C)CC4)n3c2Cl)N1 [Compound I-146]
0.01 to 100 | 0.05 | 0.22 | 127 | 21.2 | 76.5 | 335 | 1360 | 1720 | 0.79 | 28.7 | 283 | 0.22 | Cc1cccnc1[C@@H]1CCC[C@H](c2cn3c(N4CCN(C)CC4)cccc3n2)N1 [Compound I-187]

Compound | IC50 [1] [nM] | Kp uu [2] | Kp [2] | clearance [2] [mL/min/kg] | half-life [2] [min] | AUC(0-t) [2, 4] [ng·h/mL] | AUC(0-t) [2, 5] [ng·h/mL] | AUC(0-t) [3, 6] [ng·h/mL] | AUC(0-t) [3, 7] [ng·h/mL] | Kp [3] | clearance [3] [mL/min/kg] | half-life [3] [min] | Kp uu [3]
CN1CCN(c2cccc3nc([C@H]4CCC[C@@H](c5ncccc5Cl)N4)cn23)CC1 (racemic) [Compound I-149] | 0.01 to 100 | 0.38 | 1.45 | 207 | 22 | 295 | 203 |  |  |  |  |  | 
CN1CCN(c2cccc3nc([C@H]4CCC[C@@H](c5ncccc5Cl)N4)cn23)CC1 (single isomer, unassigned) [Compound I-188] | 0.01 to 100 |  |  |  |  |  |  |  |  |  |  |  | 
